Reference: article PMC5733478, “A Non-imaging High Throughput Approach to Chemical Library Screening at the Unmodified Adenosine-A3 Receptor in Living Cells” (Frontiers in Pharmacology, 2017)
Counter-ions that a name gives are not always drawn. Like-named read-outs stand apart in the source and are kept apart here.

Target: T1, human A3AR (Homo sapiens, UniProt P0DMS8)
T1 construct: expressed in transfected cells
T1 sequence (P0DMS8 1-318): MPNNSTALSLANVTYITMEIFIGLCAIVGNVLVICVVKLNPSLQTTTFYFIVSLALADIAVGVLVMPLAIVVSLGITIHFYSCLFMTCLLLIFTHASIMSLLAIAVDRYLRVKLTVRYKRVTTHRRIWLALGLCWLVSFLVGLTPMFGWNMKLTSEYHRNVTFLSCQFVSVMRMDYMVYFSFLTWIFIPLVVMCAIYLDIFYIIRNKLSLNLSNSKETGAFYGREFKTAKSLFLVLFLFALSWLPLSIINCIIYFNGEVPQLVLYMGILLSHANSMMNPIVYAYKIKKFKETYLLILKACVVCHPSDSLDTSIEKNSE
Assay: LOPAC library primary screen: single concentration (10 μM) inhibition of 25 nM CA200645 binding, PHERAstar FS

[1] = compounds tested at 10 µM, % of control wells (1% DMSO and 25 nM CA200645), whole live cells expressing the A3AR, mean ± SD, three experiments in duplicate

Compound | % 25 nM CA200645 binding [%] | also measured
COC(=O)C(N)Cc1ccc(Cl)cc1.Cl (racemic) | 95.7 ± 6.7 | –
Cl.O=c1cc(N2CCOCC2)oc2c(-c3ccccc3)cccc12 [LY-294,002 hydrochloride] | 94.6 ± 11.0 | –
Cc1ccc(O)c(N=Nc2ccccc2)n1 [SIB 1757] | 98.5 ± 4.5 | –
Cl.N=C(N)NN [Aminoguanidine hydrochloride] | 100.9 ± 6.1 | –
C[N+]1(C)[C@@H]2C[C@@H](OC(=O)[C@H](CO)c3ccccc3)C[C@H]1[C@@H]1O[C@@H]12 [(-)-Scopolamine methyl bromide] | 88.5 ± 14.0 | –
O.c1cnc2c(c1)ccc1cccnc12 [1,10-Phenanthroline monohydrate] | 90.7 ± 13.0 | –
COC(=O)[C@H]1[C@H]2C[C@H]3c4[nH]c5ccccc5c4CCN3C[C@H]2CC[C@@H]1O [Rauwolscine hydrochloride] | 96.5 ± 8.7 | –
O=C(O)C1=CCCNC1 [Guvacine hydrochloride] | – | % 25 nM CA200645 binding (% of control wells (1% DMSO and 25 nM CA200645), compounds at 10 µM, whole live cells expressing the A3AR, mean ± SD, three experiments in duplicate): 99.3 ± 14.1%
Cc1cn(C2CC(N=[N+]=[N-])C(CO)O2)c(=O)[nH]c1=O (stereo not drawn) [3'-Azido-3'-deoxythymidine] | 82.3 ± 18.1 | –
CC1=C(CC(=O)O)c2cc(F)ccc2/C1=C\c1ccc(S(C)(=O)=O)cc1 [Sulindac sulfone] | 84.5 ± 13.2 | –
N[C@H](C(=O)O)c1cc(O)no1 (racemic) [(±)-Ibotenic acid] | 93.1 ± 9.6 | –
CC(N)(Cc1ccc(O)c(O)c1)C(=O)O (racemic) | 86.8 ± 7.1 | –
Picrotoxin | 96.8 ± 4.1 | –
O=c1[nH]cc(F)c(=O)[nH]1 [5-Fluorouracil] | 98.8 ± 8.7 | –
O=C(O)C1=CC(=C(c2ccc(O)c(C(=O)O)c2)c2ccc(O)c(C(=O)O)c2)C=CC1=O [Aurintricarboxylic acid] | 93.7 ± 12.0 | –
CN(C)C(=O)[C@H](O)[C@H](Cc1ccccc1)NC(=O)c1cc2cc(Cl)ccc2[nH]1 [CP-91149] | 87.6 ± 14.6 | –
COc1cccc(C(=O)NCCN2CCN(c3ccc(Cl)cc3)CC2)c1 | 94.3 ± 6.0 | –
Nc1nc(OCC2CCCCC2)c2[nH]cnc2n1 [NU2058] | 53.9 ± 7.1 | –
NC[C@H](O)c1ccc(O)c(O)c1.O=C(O)C(O)C(O)C(=O)O (racemic) [(±)-Norepinephrine (+)bitartrate] | 87.1 ± 8.1 | –
O=C1NCC2(CCN(CCc3ccccc3)CC2)O1 [Fenspiride hydrochloride] | 81.2 ± 5.0 | –
CCn1cc(C(=O)[O-])c(=O)c2ccc(C)nc21.[Na+] [Nalidixic acid sodium] | 106.1 ± 13.7 | –
OCCN1CCN(CCCN2c3ccccc3Sc3ccc(Cl)cc32)CC1 [Perphenazine] | 88.8 ± 23.6 | –

Compound | % 25 nM CA200645 binding [%] | also measured
CCCCS(=N)(=O)CC[C@H](N)C(=O)O (stereo partly drawn) [L-Buthionine-sulfoximine] | 98.1 ± 5.3 | –
N[C@@H](Cc1ccc(O)c(O)c1)C(=O)O [L-3,4-Dihydroxyphenylalanine] | 99.1 ± 9.5 | –
CC(C)NCC(O)c1ccc(O)c(O)c1.Cl (racemic) [(±)-Isoproterenol hydrochloride] | 95.3 ± 10.4 | –
CCCCCCCCCC[Si](C)(C)CCC(=O)NC(Cc1ccc(C)cc1)c1ccccc1 (stereo not drawn) [Sandoz 58-035] | 99.6 ± 12.7 | –
OC[C@H]1O[C@@H](n2cnc3c(N[C@H]4CCC[C@@H]4O)ncnc32)[C@H](O)[C@@H]1O [GR 79236X] | 78.0 ± 19.3 | –
CC(=O)CCCCn1c(=O)c2c(ncn2C)n(C)c1=O [Pentoxifylline] | 81.9 ± 17.4 | –
N=C(N)N/N=C/c1c(Cl)cccc1Cl [Guanabenz acetate] | 98.2 ± 11.7 | –
CN(C)C(=O)N=NC(=O)N(C)C [N,N,N',N'-Tetramethylazodicarboxamide] | 95.9 ± 2.2 | –
CN(C)CC/C=C1/c2ccccc2Sc2ccc(Cl)cc21 [Chlorprothixene hydrochloride] | 96.6 ± 7.7 | –
COc1cc(/C=C(\C#N)C(=O)c2ccc(O)c(O)c2)cc(I)c1O [I-OMe-Tyrphostin AG 538] | 71.3 ± 34.4 | –
Cl.Fc1ccc(C(OCCCc2c[nH]cn2)c2ccc(F)cc2)cc1 | 99.1 ± 1.1 | –
Cc1cccc(C(=O)NCN2CCN(c3ccccc3C#N)CC2)c1.O=C(O)/C=C\C(=O)O [PD 168,077 maleate] | 92.4 ± 5.3 | –
CC(C)COC(=O)OCN1C(=O)CN(CCN2CC(=O)N(COC(=O)OCC(C)C)C(=O)C2)CC1=O [Sobuzoxane] | 111.5 ± 7.6 | –
Ro 20-1724 | 108.8 ± 2.1 | –
Br.CCCN1CCC2c3cc(O)ccc3CCC21 (racemic) [cis(+/-)-8-OH-PBZI hydrobromide] | 98.1 ± 5.1 | –
Cc1cc2c(cc1Cl)N(C(=O)Nc1ccc(Oc3cccnc3C)nc1)CC2.Cl.Cl.O [SB 242084 dihydrochloride hydrate] | 49.6± 12.4 | –
COc1cccc(NC(=O)/C=C/c2ccc(Cl)cc2)c1 [SB-366791] | 92.0 ± 7.1 | –
Ic1ccccc1CNC1C2CCN(CC2)C1C(c1ccccc1)c1ccccc1.O=C(O)C(=O)O [L-703,606 oxalate salt hydrate] | 93.3 ± 4.4 | –
Cl.Cl.Cn1cnc(CCN)c1 [1-Methylhistamine dihydrochloride] | 99.7 ± 10.5 | –
NC(=O)c1cn(Cc2c(F)cccc2F)nn1 [Rufinamide] | 100.9 ± 12.8 | –
COc1ccccc1N1CCN(CCN(C(=O)c2ccc(F)cc2)c2ccccn2)CC1.Cl.Cl [p-MPPF dihydrochloride] | 117.8 ± 19.4 | –
N[C@@H](COP(=O)(O)O)C(=O)O [O-Phospho-L-serine] | 93.4 ± 14.4 | –

Compound | % 25 nM CA200645 binding [%] | also measured
O=P(O)(O)C(Cl)(Cl)P(=O)(O)O [Clodronic acid] | 98.4 ± 3.5 | –
N#C/C(=C\c1ccc(O)c(O)c1)C(=O)Nc1ccccc1 [Tyrphostin AG 494] | 91.5 ± 7.4 | –
CC(C)=CCOc1c2occc2cc2ccc(=O)oc12 [Imperatorin] | 47.6 ± 2.3 | –
CC1=NS(=O)(=O)c2cc(Cl)ccc2N1 [Diazoxide] | 101.5 ± 12.2 | –
CC[N+](CC)(CC)CCOc1ccc(/C=C/c2ccccc2)cc1 [MG 624] | 106.9 ± 11.5 | –
C=C(C)[C@H]1CC=C(C(=O)O)CC1 [(-)-Perillic acid] | 115.8 ± 16.6 | –
CCc1cc(Cl)c(O)c(C(=O)NC[C@@H]2CCCN2CC)c1OC.Cl [S-(-)-Eticlopride hydrochloride] | 96.8 ± 1.1 | –
CCCN1CCC[C@@H]2Cc3nc(N)ncc3C[C@H]21.Cl.Cl [Quinelorane dihydrochloride] | 105.7 ± 9.9 | –
Clc1ccccc1C(c1ccccc1)(c1ccccc1)n1ccnc1 [Clotrimazole] | 74.0 ± 15.0 | –
CNC(=O)c1cc2c(cn1)[nH]c1ccccc12 [N-Methyl-beta-carboline-3-carboxamide] | 84.9 ± 8.4 | –
Cl.NC1C=CC=C(C(=O)O)C1 (stereo not drawn) [Gabaculine hydrochloride] | 97.5 ± 8.4 | –
NCCS(=O)(=O)O [Taurine] | – | % 25 nM CA200645 binding [1]: 106.8 ± 10.4%
CCN1CCC[C@H]1CNC(=O)c1c(O)c(Cl)cc(Cl)c1OC.O=C(O)C(O)C(O)C(=O)O (racemic) [S(+)-Raclopride L-tartrate] | 98.6 ± 4.9 | –
NN=C(N)N.NN=C(N)N.O=S(=O)(O)O [Aminoguanidine hemisulfate] | 99.2 ± 8.4 | –
CCC(=O)c1ccc2c(c1)N(CCCN(C)C)c1ccccc1S2 [Propionylpromazine hydrochloride] | – | % 25 nM CA200645 binding [1]: 101.0 ± 0.8%
CN1CCC[C@@H]1Cc1c[nH]c2ccc(Nc3ncccc3[N+](=O)[O-])cc12 [CP-135807] | 96.1 ± 6.8 | –
CCCCC1(C2CCCC2)Cc2cc(OCC(=O)O)c(Cl)c(Cl)c2C1=O (stereo in doubt) [R(+)-Butylindazone] | 91.2 ± 11.8 | –
CC(C)(C)c1ccc(/C=C/C(=O)Nc2ccc3c(c2)OCCO3)cc1 [AMG 9810] | 59.0 ± 6.4 | –
CC(N)=O [Acetamide] | 96.1 ± 7.6 | –
CC(C)(Oc1ccc(CCNC(=O)c2ccc(Cl)cc2)cc1)C(=O)O [Bezafibrate] | 93.0 ± 7.9 | –
N[C@H](C(=O)O)c1cc(O)cc(O)c1 [(S)-3,5-Dihydroxyphenylglycine] | 102.7 ± 20.4 | –
C[C@@H](N)[C@H]1CC[C@H](C(=O)Nc2ccncc2)CC1.Cl.Cl [Y-27632 dihydrochloride] | 98.6 ± 10.3 | –
